# Experimental data as given in patent publication US20240391901A1, “SUBSTITUTED HETEROCYCLIC COMPOUND CONTAINING ALPHA-KETONE FRAMEWORK, AND USE THEREOF” (CHINA PHARMACEUTICAL UNIVERSITY, priority 2021, published 2024).
# Legend:
# mice = test: Acetic acid writhing test in mice (analgesic activity); assay type: in vivo; settings: 5 mg/kg s.c
# Procedure: Using the acetic acid writhing test in mice as a pain model to evaluate the analgesic activity of compound I-11. The experimental animal information and procedures are outlined below.
# Healthy ICR mice, of clean grade, weighing 20-25 g. The animal facility complies with the requirements of a clean laboratory, with a temperature of 20-22° C., humidity of 40%˜70%, and controlled lighting on a 12-hour light/12-hour dark cycle (lighting from 8:00 to 20:00). Mice are housed in plastic cages (280×150×180 mm) with 10 mice per cage, separated by gender, and provided ad libitum access to food and water. The diet consists of experimental rodent pellets, and the drinking water is city tap water sterilized by high-temperature autoclaving. Mice are allowed a 7-day acclimatization period. All procedures involving animals are conducted following the guidelines of the International Association for the Study of Pain Ethics Committee. Mice are housed in the animal facility upon purchase.
# Glacial acetic acid and physiological saline were obtained from the China Pharmaceutical University reagent repository. Compound I-11 was a laboratory-synthesized compound (purity>98%).
# Mice were marked with saturated bitter solution, with the left front limb marked as number 1, left hind limb as number 2, right front limb as number 3, right hind limb as number 4, and head as number 5. Combinations such as head with left front limb as number 6, head with left hind limb as number 7, head with right front limb as number 8, head with right hind limb as number 9, and tail as number 10 were used for identification. Animals were divided into groups, with n=10 in each group, evenly distributed between males and females.
# The experiment employed the acetic acid-induced writhing test in mice to investigate the analgesic activity of the samples. […] The number of writhing movements and the latency period of mice were observed and recorded 15 minutes after acetic acid injection, and the analgesic percentage was calculated. […]
# SD rats [1] = test: Sucrose preference test, chlorpromazine-induced depression model; assay type: in vivo
# Procedure: (§1) Male SD rats weighing between 180 g to 200 g were randomly divided into 6 groups, with 8 rats in each group, as follows: Normal group; Chlorpromazine group; Positive control group (Amitriptyline, 6 mg/kg); I-11 low dose group (3 mg/kg); I-11 medium dose group (6 mg/kg); I-11 high dose group (12 mg/kg); In the normal group, rats were maintained under normal conditions. In other groups, rats were intraperitoneally injected with chlorpromazine (0.2 mg/kg) once a day for three days to induce the model. After successful modeling, the respective drugs were administered according to the group. After two weeks of continuous administration, sucrose consumption test, open field test, and forced swimming test were conducted sequentially. The American Psychiatric Association considers a significant feature of depression to be the decrease in reward responsiveness, indicating a loss of pleasure. The sucrose preference test is a well-established measure for assessing reward responsiveness in experimental animals.
# SD rats [2] = test: Open field test, chlorpromazine-induced depression model; assay type: in vivo; settings: 6 mg/kg
# Procedure: as §1, with “After” for “The American Psychiatric Association considers a significant feature of depression to be”, “the” for “the decrease in reward responsiveness, indicating a loss of pleasure. The”, “preference test, we conducted an open field” for “preference”, “on the” for “is a well-established measure for assessing reward responsiveness in”
# SD rats [3] = test: Forced swimming test, chlorpromazine-induced depression model; assay type: in vivo
# Procedure: as §1, with “sequentially.” for “sequentially. The American Psychiatric Association considers a significant feature of depression to be the decrease in reward responsiveness, indicating a loss of pleasure. The sucrose preference test is a well-established measure for assessing reward responsiveness in experimental animals.”
# FAAH = target: T1, FAAH (Homo sapiens, UniProt O00519); test: In vitro FAAH enzyme inhibition activity assay (FAAH assay kit, fluorescently labeled substrate); assay type: biochemical
# T1 construct: purchased
# T1 sequence (O00519 1-579): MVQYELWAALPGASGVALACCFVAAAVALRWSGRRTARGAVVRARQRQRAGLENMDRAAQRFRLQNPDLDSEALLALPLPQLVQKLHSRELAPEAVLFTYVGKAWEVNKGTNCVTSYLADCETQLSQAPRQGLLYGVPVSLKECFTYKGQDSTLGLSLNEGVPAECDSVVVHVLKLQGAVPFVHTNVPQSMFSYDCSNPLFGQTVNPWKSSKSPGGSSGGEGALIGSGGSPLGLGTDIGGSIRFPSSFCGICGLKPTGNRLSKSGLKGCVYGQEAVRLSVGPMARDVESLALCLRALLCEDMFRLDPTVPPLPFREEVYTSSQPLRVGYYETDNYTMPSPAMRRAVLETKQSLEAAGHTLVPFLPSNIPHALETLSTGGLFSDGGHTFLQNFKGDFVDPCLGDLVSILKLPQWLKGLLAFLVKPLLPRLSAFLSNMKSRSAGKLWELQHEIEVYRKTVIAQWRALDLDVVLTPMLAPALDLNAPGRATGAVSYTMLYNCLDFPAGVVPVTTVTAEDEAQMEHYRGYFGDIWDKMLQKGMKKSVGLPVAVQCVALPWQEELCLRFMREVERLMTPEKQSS
# Procedure: FAAH hydrolyzes AEA to form ethanolamine within cells. Different enzyme activities catalyze the formation of varying amounts of products from a fixed amount of substrate. The enzyme activity level can be assessed by measuring the amount of products generated. Based on this principle, experiments were designed in this invention. According to the FAAH assay kit instructions, a certain concentration of FAAH was diluted and added to a buffer solution along with a fluorescently labeled substrate. Compounds of various concentrations were then added, along with blank control groups and JZL-195 positive control groups. After the reaction, fluorescence analysis was performed using a plate reader, and the inhibition rate was calculated.
SMILES,IC50 (FAAH; values given in μm [sic]),IC50 (FAAH; values in nm),also measured
CN1CC[C@]23c4c5ccc(O)c4O[C@H]2[C@@H](O)C=C[C@H]3[C@H]1C5 [Morphine],–,–,"Inhibition (analgesic percentage, writhing) (mice): 100.0%; latency period (mice): 0 s; writhing count (mice; within 15 minutes after acetic acid): 0"
CN(C)CCC=C1c2ccccc2CCc2ccccc21 [Amitriptyline],–,–,"sucrose intake compared to the model group (in words) (SD rats [1]; high-dose I-11 (12 mg/kg), amitriptyline 6 mg/kg): significant increase in sucrose intake; Sucrose intake ratio (SD rats [1]; model rats, 6 mg/kg, two weeks of administration): 78.6 ± 4.6 %; Frequency of grooming (SD rats [2]): 4.3 ± 0.3 n; Frequency of upright (SD rats [2]): 10.6 ± 2.2 n; Times passing the grid (SD rats [2]): 58.9 ± 2.2 n; Total time in center (SD rats [2]): 4.6 ± 0.6 s; immobility time versus model (in words) (SD rats [3]; Amitriptyline 6 mg/kg, I-11 medium and high dose, p<0.05): reduce the immobility time; Immobility Time (SD rats [3]; model rats, 6 mg/kg): 88.47 ± 4.64 s"
"O=C(c1ccccn1)C1CCN(C(=O)c2cc3ccccc3o2)CC1 [Compound I-4, (1-(benzofuran-2-carbonyl)piperidin-4-yl)(pyridin-2-yl)methanone]",10100 nM,–,–
"Cn1c(C(=O)N2CCC(C(=O)c3nnc(-c4ccco4)o3)CC2)cc2cc(Cl)ccc21 [Compound I-15, (5-chloro-1-methyl-1H-indol-2-yl)(4-(5-(furan-2-yl)-1,3,4-oxadiazol-2-carbonyl)piperidin-1-yl)methanone]",–,3.11 nM,–
Cn1c(C(=O)N2CCC(C(=O)c3nc4ccccc4s3)CC2)cc2cc(Cl)ccc21 [Compound I-9],–,279 nM,–
O=C(c1ccccn1)C1CCN(C(=O)c2cnc3ccccc3c2)CC1 [Compound I-5],125000 nM,–,–
"Cn1c(C(=O)N2CCC(C(=O)c3nnc(-c4cccc(Cl)c4)o3)CC2)cc2cc(Cl)ccc21 [Compound I-13, (5-chloro-1-methyl-1H-indol-2-yl)(4-(5-(3-chlorophenyl)-1,3,4-oxadiazol-2-carbonyl)piperidin-1-yl)methanone]",–,89.7 nM,–
"O=C(c1ccccn1)C1CCN(Cc2cnc3ccccc3c2)CC1 [Compound I-6, Pyridin-2-yl(1-(quinolin-3-ylmethyl)piperidin-4-yl)methanone]",132000 nM,–,–
Cn1c(C(=O)N2CCC(C(=O)c3ccncc3)CC2)cc2ccccc21 [Compound I-2],14200 nM,–,–
Cn1c(C(=O)N2CCC(C(=O)c3ccncc3)CC2)cc2cc(Cl)ccc21 [Compound I-1],27900 nM,–,–
"Cn1c(C(=O)N2CCC(C(=O)c3ncco3)CC2)cc2cc(Cl)ccc21 [Compound I-7, (5-Chloro-1-methyl-1H-indol-2-yl)(4-(oxazole-2-carbonyl)piperidin-1-yl) methanone]",–,77.9 nM,–
"Cn1c(C(=O)N2CCC(C(=O)c3nccs3)CC2)cc2cc(Cl)ccc21 [Compound I-8, (5-chloro-1-methyl-1H-indol-2-yl)(4-(thiazol-2-carbonyl)piperidin-1-yl)methanone]",1030 nM,–,–
Cn1c(C(=O)N2CCC(C(=O)c3ccccn3)CC2)cc2cc(Cl)ccc21 [Compound I-3],13500 nM,–,–
"Cn1c(C(=O)N2CCC(C(=O)c3ncc(-c4ccccc4)o3)CC2)cc2cc(Cl)ccc21 [Compound I-10, (5-chloro-1-methyl-1H-indol-2-yl)-(4-(5-phenyl-oxazol-2-carbonyl)piperidin-1-yl)methanone]",–,112 nM,–
"Cn1c(C(=O)N2CCC(C(=O)c3nnc(-c4cccs4)o3)CC2)cc2cc(Cl)ccc21 [Compound I-16, (5-chloro-1-methyl-1H-indol-2-yl) (4-(5-(thiophene-2-yl)-1,3,4-oxadiazol-2-carbonyl)piperidin-1-yl)methanone]",–,12.9 nM,–
"O=C(Oc1ccc([N+](=O)[O-])cc1)N1CCN(Cc2cccc(Oc3ccccc3)c2)CC1 [JZL-195, reference compound]",–,2.81 nM,–
